Reference: patent publication US11041000B2, “Peptide inhibitors of interleukin-23 receptor and their use to treat inflammatory diseases” (priority 2019, dated 2021)
Numbered stars: 1 amine (or outer) side, 2 acyl side, 3 side chain; on linkers, the order of the positions; unused ones are H or OH. Bridge positions count the residues as written; N and C are the ends. Square brackets hold non-standard residues; d marks the D form. Peptide text beside a SMILES is read from it. Trp(7-Me) = Cc1cccc2c(C[C@H](N)C(=O)O)c[nH]c12; Abu(4-yl) = O=C([C@H](CC[*:3])N[*:1])[*:2]; 2Nal = N[C@@H](Cc1ccc2ccccc2c1)C(=O)O; AEF = NCCOc1ccc(C[C@H](N)C(=O)O)cc1; Cit = NC(=O)NCCC[C@H](N)C(=O)O; Pen = CC(C)(S)[C@H](N)C(=O)O; αMeK = C[C@](N)(CCCCN)C(=O)O; βAla = NCCC(=O)O

Key:
Type in all cases: in vitro ADME
[1] = Stability in simulated intestinal fluid (SIF); conditions: simulated intestinal fluid with pancreatin, pH 6.8, 37° C., matrix is 100 fold dilution of standard SIF concentration; for half-life at 20 μM: read-out: SIF t½ (converted); for SIF t½: 20 μM
[2] = Stability in human fecal homogenate; conditions: 20% fecal homogenate (supernatant), pH 6.8, 20% human fecal homogenate, anaerobic, 37° C., read-out: t½: Human Feces anaerobic (converted)
Procedure: Centrifuged the homogenate at 2800×g for 15 min. The supernatant is taken out and used for incubations. […] The final test compound concentration was 20 μM.

Stability in rat plasma = conditions: both sexes, SD rat plasma, EDTA, 37° C., read-out: t½: Rat Plasma EDTA (converted)

| half-life at 20 μM [1] [min] | half-life at 20 μM [2] [min] | SIF t½ [1] [h] | SMILES | other results |
| --- | --- | --- | --- | --- |
| 1200 | – | – | CC(=O)NCCCC[C@@H]1NC(=O)[C@H](Cc2c[nH]c3c(C)cccc23)NC(=O)[C@H]([C@@H](C)O)NC(=O)[C@H](CC(N)=O)NC(=O)[C@@H](NC(C)=O)C(C)(C)SSC(C)(C)[C@@H](C(=O)N[C@@H](Cc2ccc(OCCN)cc2)C(=O)N[C@@H](Cc2ccc3ccccc3c2)C(=O)N[C@@](C)(CCCCN)C(=O)N[C@@H](CCCCNC(C)=O)C(=O)N[C@@H](CC(N)=O)C(=O)N[C@@H](C(N)=O)C(C)C)NC1=O [compound 251] | – |
| 600 | – | – | CC(=O)NCCCC[C@@H]1NC(=O)[C@H](Cc2c[nH]c3c(C)cccc23)NC(=O)[C@H]([C@@H](C)O)NC(=O)[C@H](CC(N)=O)NC(=O)[C@@H](NC(C)=O)C(C)(C)SSC(C)(C)[C@@H](C(=O)N[C@@H](Cc2ccc(OCCN)cc2)C(=O)N[C@@H](Cc2ccc3ccccc3c2)C(=O)N[C@@](C)(CCCCN)C(=O)N[C@@H](CCCCNC(C)=O)C(=O)N[C@@H](CC(N)=O)C(=O)N2CCC[C@H]2C(N)=O)NC1=O [compound 253] | – |
| – | – | 24 | CC(=O)NCCCC[C@H](NC(=O)[C@](C)(CCCCN)NC(=O)[C@H](Cc1ccc2ccccc2c1)NC(=O)[C@H](Cc1ccc(OCCN)cc1)NC(=O)[C@H]1NC(=O)[C@H](CCCNC(N)=O)NC(=O)[C@H](Cc2c[nH]c3c(C)cccc23)NC(=O)[C@H]([C@@H](C)O)NC(=O)[C@H](CC(N)=O)NC(=O)[C@@H](NC(C)=O)C(C)(C)SSC1(C)C)C(=O)N[C@@H](CC(N)=O)C(=O)N[C@@H](C(N)=O)[C@H](C)O [compound 263] (Ac-[Pen]NT[Trp(7-Me)][Cit][Pen][AEF][2Nal][αMeK]K(Ac)N[dT]-NH2; disulfide 1-6) | – |
| 240 | – | – | CC(=O)NCCCC[C@@H]1NC(=O)[C@H](Cc2c[nH]c3c(C)cccc23)NC(=O)[C@H]([C@@H](C)O)NC(=O)[C@H](CCC(N)=O)NC(=O)[C@@H](NC(=O)[C@@H](CCCNC(=N)N)NC(C)=O)CCSC[C@@H](C(=O)N[C@@H](Cc2ccc(OCCN)cc2)C(=O)N[C@@H](Cc2ccc3ccccc3c2)C(=O)N[C@@](C)(CCCCN)C(=O)N[C@@H](CCCCNC(C)=O)C(=O)N[C@@H](CC(N)=O)C(N)=O)NC1=O [compound 326] (Ac-[dR][Abu(4-yl)]QT[Trp(7-Me)]K(Ac)C[AEF][2Nal][αMeK]K(Ac)N-NH2; thioether 2-7) | half-life at 20 μM (Stability in rat plasma): > 1440 min |

Second part, the molecule before the results:

| SMILES | half-life at 20 μM [1] [min] | half-life at 20 μM [2] [min] | SIF t½ [1] [h] | other results |
| --- | --- | --- | --- | --- |
| CC(=O)NCCCC[C@@H]1NC(=O)[C@H](Cc2c[nH]c3c(C)cccc23)NC(=O)[C@H]([C@@H](C)O)NC(=O)[C@H](CC(N)=O)NC(=O)[C@@H](NC(C)=O)C(C)(C)SSC(C)(C)[C@@H](C(=O)N[C@@H](Cc2ccc(OCCN)cc2)C(=O)N[C@@H](Cc2ccc3ccccc3c2)C(=O)N[C@@](C)(CCCCN)C(=O)N[C@@H](CCCCNC(C)=O)C(=O)N[C@@H](CC(N)=O)C(=O)N[C@@H](Cc2c[nH]cn2)C(N)=O)NC1=O [SEQ ID No. 248, Ac-[Pen]-NT-[W(7-Me)]-[Lys(Ac)]-[Pen]-Phe[4-(2-aminoethoxy)]-[2-Nal]-[a-MeLys]-[Lys(Ac)]-N-H-NH2] | 1920 | > 1340 | – | – |
| CC(=O)NCCCC[C@H](NC(=O)[C@](C)(CCCCN)NC(=O)[C@H](Cc1ccc2ccccc2c1)NC(=O)[C@H](Cc1ccc(OCCN)cc1)NC(=O)[C@H]1NC(=O)[C@H](CCC(N)=O)NC(=O)[C@H](Cc2c[nH]c3c(C)cccc23)NC(=O)[C@H]([C@@H](C)O)NC(=O)[C@H](CCCNC(N)=O)NC(=O)[C@@H](NC(C)=O)C(C)(C)SSC1(C)C)C(=O)N[C@@H](CC(N)=O)C(=O)NCCC(N)=O [compound 238] (Ac-[Pen][Cit]T[Trp(7-Me)]Q[Pen][AEF][2Nal][αMeK]K(Ac)N[βAla]-NH2; disulfide 1-6) | – | – | 24 | – |
| CC(=O)NCCCC[C@H](NC(=O)[C@](C)(CC(C)C)NC(=O)[C@H](Cc1ccc2ccccc2c1)NC(=O)[C@H](Cc1ccc(OCCN)cc1)NC(=O)[C@H]1NC(=O)[C@H](CCC(N)=O)NC(=O)[C@H](Cc2c[nH]c3c(C)cccc23)NC(=O)[C@H]([C@@H](C)O)NC(=O)[C@H](CC(N)=O)NC(=O)[C@@H](NC(C)=O)C(C)(C)SSC1(C)C)C(=O)N[C@H](C)C(=O)NCCC(N)=O [compound 209] | 900 | – | – | – |
| CC(=O)NCCCC[C@@H]1NC(=O)[C@@H](NC(C)=O)C(C)(C)SSC(C)(C)[C@@H](C(=O)N[C@@H](Cc2ccc(OCCN)cc2)C(=O)N[C@@H](Cc2ccc3ccccc3c2)C(=O)N[C@@](C)(CCCCN)C(=O)N[C@@H](CCCCNC(C)=O)C(=O)N[C@@H](CC(N)=O)C(=O)NCCC(N)=O)NC(=O)[C@H](CCC(N)=O)NC(=O)[C@H](Cc2c[nH]c3c(C)cccc23)NC(=O)[C@H]([C@@H](C)O)NC1=O [compound 239] | – | – | 24 | – |
| CC(=O)NCCCC[C@H](NC(=O)[C@](C)(CC(C)C)NC(=O)[C@H](Cc1ccc2ccccc2c1)NC(=O)[C@H](Cc1ccc(OCCN)cc1)NC(=O)[C@H]1NC(=O)[C@H](CCC(N)=O)NC(=O)[C@H](Cc2c[nH]c3c(C)cccc23)NC(=O)[C@H]([C@@H](C)O)NC(=O)[C@H](CC(N)=O)NC(=O)[C@@H](NC(C)=O)C(C)(C)SSC1(C)C)C(=O)N[C@H](CO)C(=O)NCCC(N)=O [compound 222] | 1140 | – | – | – |
| CC(=O)NCCCC[C@@H]1NC(=O)[C@H](Cc2c[nH]c3c(C)cccc23)NC(=O)[C@H]([C@@H](C)O)NC(=O)[C@H](CC(N)=O)NC(=O)[C@@H](NC(C)=O)C(C)(C)SSC(C)(C)[C@@H](C(=O)N[C@@H](Cc2ccc(OCCN)cc2)C(=O)N[C@@H](Cc2ccc3ccccc3c2)C(=O)N[C@@](C)(CCCCN)C(=O)N[C@@H](CCCCNC(C)=O)C(=O)N[C@@H](CC(N)=O)C(=O)N[C@H](C(N)=O)C(C)C)NC1=O [compound 250] | 660 | > 1170 | – | – |
| CC(=O)NCCCC[C@@H]1NC(=O)[C@H](Cc2c[nH]c3c(C)cccc23)NC(=O)[C@H]([C@@H](C)O)NC(=O)[C@H](CC(N)=O)NC(=O)[C@@H](NC(C)=O)C(C)(C)SSC(C)(C)[C@@H](C(=O)N[C@@H](Cc2ccc(OCCN)cc2)C(=O)N[C@@H](Cc2ccc3ccccc3c2)C(=O)N[C@@](C)(CCCCN)C(=O)N[C@@H](CCCCNC(C)=O)C(=O)N[C@@H](CC(N)=O)C(=O)NCCC(N)=O)NC1=O [compound 242] | – | – | 24 | – |
| CC(=O)NCCCC[C@@H]1NC(=O)[C@H](Cc2c[nH]c3c(C)cccc23)NC(=O)[C@H]([C@@H](C)O)NC(=O)[C@H](CC(N)=O)NC(=O)[C@@H](NC(C)=O)C(C)(C)SSC(C)(C)[C@@H](C(=O)N[C@@H](Cc2ccc(OCCN)cc2)C(=O)N[C@@H](Cc2ccc3ccccc3c2)C(=O)N[C@@](C)(CCCCN)C(=O)N[C@@H](CCCCNC(C)=O)C(=O)N[C@@H](CC(N)=O)C(=O)N[C@@H](CCCNC(N)=O)C(N)=O)NC1=O [compound 249] | 180 | > 1020 | – | – |
| CC(=O)NCCCC[C@@H]1NC(=O)[C@H](Cc2c[nH]c3c(C)cccc23)NC(=O)[C@H]([C@@H](C)O)NC(=O)[C@H](CC(N)=O)NC(=O)[C@@H](NC(C)=O)C(C)(C)SSC(C)(C)[C@@H](C(=O)N[C@@H](Cc2ccc(OCCN)cc2)C(=O)N[C@@H](Cc2ccc3ccccc3c2)C(=O)N[C@@](C)(CCCCN)C(=O)N[C@@H](CCCCNC(C)=O)C(=O)N[C@@H](CC(N)=O)C(=O)N[C@@H](CC(C)C)C(N)=O)NC1=O [compound 244] | – | 900 | – | – |
